The values below come from patent US20230117034A1, “PYRAZOLOTRIAZINES” (Bayer Aktiengesellschaft, priority 2019, published 2023).

One test has as its target CDK12/CycK (Homo sapiens, UniProt Q9NYV4). The test can be described thus: CDK12/CycK high ATP kinase assay (TR-FRET, 2 mM ATP). The class given is biochemical. The following applies: 2 mM ATP (high ATP); median; read-out: CDK12/CyclinK, 2 mM ATP (high ATP), IC50-[mol/l] (median). Summed up:
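His-tagged human CDK12/CycK (~0.75 nM) pre-incubated 15 min with compound, then 60 min at 22 °C with 2 mM ATP and 1 µM biotinylated peptide (HEPES pH 7.5, 20 mM MgCl2). EDTA stop; phospho-Ser62 antibody/Eu anti-rabbit and streptavidin-XL665 TR-FRET, 665/620 nm ratio normalised to give IC50.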
(In general: In TR-FRET formats the signal depends on donor and acceptor labels being close together.)

For the next test, the target named is T1, CDK9/CycT1 (Homo sapiens, UniProt P50750).
T1 construct: Recombinant full-length His-tagged human CDK9 and CycT1; purchased Life Technologies PV4131; host or cells: insect cells
The test is described as follows: CDK9/CycT1 high ATP kinase assay (TR-FRET, 2 mM ATP). The following applies: 2 mM ATP (high ATP); median; read-out: CDK9/CyclinT1, 2 mM ATP (high ATP), IC50 (median). The class given is biochemical. In outline: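 Full-length His-tagged human CDK9/CycT1 (insect cell, ~0.5 μg/mL) preincubated 15 min at 22 °C with compound in Tris pH 8.0, MgCl2, DTT buffer before reaction with biotinylated peptide substrate at high ATP (2 mM).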

Each structure is given as a SMILES string.

T1 sequence (P50750 whole entry): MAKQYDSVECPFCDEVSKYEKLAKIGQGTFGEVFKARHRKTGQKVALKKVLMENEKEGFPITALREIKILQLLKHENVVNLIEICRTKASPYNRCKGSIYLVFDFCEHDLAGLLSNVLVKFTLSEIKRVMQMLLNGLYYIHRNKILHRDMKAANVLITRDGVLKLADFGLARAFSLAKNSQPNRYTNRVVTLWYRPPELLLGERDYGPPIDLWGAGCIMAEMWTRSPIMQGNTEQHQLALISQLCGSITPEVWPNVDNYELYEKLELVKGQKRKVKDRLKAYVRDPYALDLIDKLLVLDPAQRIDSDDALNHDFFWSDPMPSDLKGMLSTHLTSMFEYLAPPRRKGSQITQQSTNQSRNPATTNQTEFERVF
T1 sequence (O60563 whole entry partner): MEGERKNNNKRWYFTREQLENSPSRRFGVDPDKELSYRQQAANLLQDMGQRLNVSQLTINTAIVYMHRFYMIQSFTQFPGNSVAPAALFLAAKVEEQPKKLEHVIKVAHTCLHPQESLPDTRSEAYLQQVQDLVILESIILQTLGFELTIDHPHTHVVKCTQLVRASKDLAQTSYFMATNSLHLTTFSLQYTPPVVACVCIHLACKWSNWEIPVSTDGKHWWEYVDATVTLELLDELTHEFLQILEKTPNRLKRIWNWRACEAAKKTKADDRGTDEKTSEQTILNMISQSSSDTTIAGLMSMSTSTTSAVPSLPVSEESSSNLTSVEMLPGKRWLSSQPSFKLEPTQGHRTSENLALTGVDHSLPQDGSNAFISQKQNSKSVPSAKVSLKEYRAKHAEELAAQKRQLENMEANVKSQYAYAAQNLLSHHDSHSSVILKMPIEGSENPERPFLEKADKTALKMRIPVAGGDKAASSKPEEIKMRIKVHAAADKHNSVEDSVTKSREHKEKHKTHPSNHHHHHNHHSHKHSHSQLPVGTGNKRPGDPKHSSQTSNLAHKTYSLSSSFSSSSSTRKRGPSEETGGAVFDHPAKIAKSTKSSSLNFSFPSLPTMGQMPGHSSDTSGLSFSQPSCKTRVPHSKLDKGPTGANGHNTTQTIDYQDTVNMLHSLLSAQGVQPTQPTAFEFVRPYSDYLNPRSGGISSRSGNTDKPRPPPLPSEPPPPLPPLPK
CDK12/CycK, sequence (Q9NYV4 with tags, fused parts or gaps): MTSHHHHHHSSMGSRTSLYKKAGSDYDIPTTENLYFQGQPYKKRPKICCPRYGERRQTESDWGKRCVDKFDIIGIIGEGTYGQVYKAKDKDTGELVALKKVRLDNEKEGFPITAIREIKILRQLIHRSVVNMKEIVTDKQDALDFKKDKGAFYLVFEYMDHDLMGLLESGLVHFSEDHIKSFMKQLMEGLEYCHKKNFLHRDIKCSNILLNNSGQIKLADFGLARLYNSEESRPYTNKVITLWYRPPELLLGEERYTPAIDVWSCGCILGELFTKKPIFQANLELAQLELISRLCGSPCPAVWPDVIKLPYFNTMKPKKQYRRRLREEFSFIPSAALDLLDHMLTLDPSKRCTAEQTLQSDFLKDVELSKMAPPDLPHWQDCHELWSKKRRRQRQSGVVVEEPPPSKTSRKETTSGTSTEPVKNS
CDK12/CycK, sequence (O75909 1-300 partner limits assumed): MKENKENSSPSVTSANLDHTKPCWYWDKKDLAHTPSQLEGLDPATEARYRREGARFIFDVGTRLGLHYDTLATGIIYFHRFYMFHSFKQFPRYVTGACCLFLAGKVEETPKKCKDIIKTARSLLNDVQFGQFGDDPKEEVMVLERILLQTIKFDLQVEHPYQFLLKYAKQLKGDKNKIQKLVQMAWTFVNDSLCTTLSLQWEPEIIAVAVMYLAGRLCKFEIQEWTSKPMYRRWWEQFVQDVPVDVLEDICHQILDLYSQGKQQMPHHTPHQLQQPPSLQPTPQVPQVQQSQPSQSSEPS

As for `CN(C)C1CCN(c2nc(NCc3nc4ccccc4[nH]3)n3ncc(Br)c3n2)CC1` [Example 201, N-[(1H-benzimidazol-2-yl)methyl]-8-bromo-2-[4-(dimethylamino)piperidin-1-yl]pyrazolo[1,5-a][1,3,5]triazin-4-amine], the IC50 on CDK12/CycK and on CDK9/CycT1 was > 20 µM in each case.

For the compound `Cc1ccc2[nH]c(CNc3nc(N4CCN(C)CC4)nc4c(C5CC5)cnn34)nc2c1` [Example 210, 8-cyclopropyl-N-[(5-methyl-1H-benzimidazol-2-yl)methyl]-2-(4-methylpiperazin-1-yl)pyrazolo[1,5-a][1,3,5]triazin-4-amine], the IC50 at CDK12/CycK and on CDK9/CycT1 was > 20 µM throughout.

Consider `Brc1cnn2c(NCc3nc4ccccc4[nH]3)nc(N3CC4CCC3CN4)nc12` (centres unmarked) [Example 220, N-(1H-benzimidazol-2-ylmethyl)-8-bromo-2-(2,5-diazabicyclo[2.2.2]octan-2-yl)pyrazolo[1,5-a][1,3,5]triazin-4-amine], for which the IC50 on CDK12/CycK was 5.55 µM; on CDK9/CycT1 it was > 20 µM.

Regarding `CN1CC2CCC(C1)N2c1nc(NCc2nc3ccccc3[nH]2)n2ncc(Br)c2n1` [Example 226, N-(1H-benzimidazol-2-ylmethyl)-8-bromo-2-(3-methyl-3,8-diazabicyclo[3.2.1]octan-8-yl)pyrazolo[1,5-a][1,3,5]triazin-4-amine], the IC50 at CDK12/CycK and at CDK9/CycT1 was > 20 µM each time.

Take `O[C@H]1CCN(c2nc(NCc3nc4ccccc4[nH]3)n3ncc(Br)c3n2)C1` [Example 224, (3S)-1-(4-{[(1H-benzimidazol-2-yl)methyl]amino}-8-bromopyrazolo[1,5-a][1,3,5]triazin-2-yl)pyrrolidin-3-ol]: the IC50 on CDK12/CycK was 15.6 µM; at CDK9/CycT1, > 20 µM.

Turning to `CN1CCN(c2nc(NCc3nc4ccccc4[nH]3)n3ncc(-c4ccncc4)c3n2)CC1` [Example 242, N-[(1H-benzimidazol-2-yl)methyl]-2-(4-methylpiperazin-1-yl)-8-(pyridin-4-yl)pyrazolo[1,5-a][1,3,5]triazin-4-amine], the IC50 on CDK12/CycK and on CDK9/CycT1 was > 20 µM throughout.

Turning to `CO[C@@H]1CCN(c2nc(NCc3nc4ccccc4[nH]3)n3ncc(Br)c3n2)C1` [Example 223, N-[(1H-benzimidazol-2-yl)methyl]-8-bromo-2-[(3R)-3-methoxypyrrolidin-1-yl]pyrazolo[1,5-a][1,3,5]triazin-4-amine], the IC50 at CDK12/CycK is > 16.5 µM; on CDK9/CycT1, > 20 µM.

In the case of `C[C@@H]1CN(c2nc(NCc3nc4c(F)cccc4[nH]3)n3ncc(C4CC4)c3n2)C[C@H](C)N1` [Example 186, 8-cyclopropyl-2-[(3R,5S)-3,5-dimethylpiperazin-1-yl]-N-[(4-fluoro-1H-benzimidazol-2-yl)methyl]pyrazolo[1,5-a][1,3,5]triazin-4-amine], the figures for the IC50 on CDK12/CycK and at CDK9/CycT1 were 2.72 µM and > 20 µM, respectively.

For the compound `Clc1cnn2c(NCc3nc4ccccc4[nH]3)nc(N3CCOCC3)nc12` [Example 15, N-[(1H-benzimidazol-2-yl)methyl]-8-chloro-2-(morpholin-4-yl)pyrazolo[1,5-a][1,3,5]triazin-4-amine], the IC50 on CDK12/CycK was 6.02 µM; on CDK9/CycT1, > 20 µM.

As for `Fc1ccc2[nH]c(CNc3nc(N4CCNCC4)nc4c(C5CC5)cnn34)nc2c1` [Example 190, 8-cyclopropyl-N-[(5-fluoro-1H-benzimidazol-2-yl)methyl]-2-(piperazin-1-yl)pyrazolo[1,5-a][1,3,5]triazin-4-amine], the results for the IC50 at CDK12/CycK and on CDK9/CycT1 were 6.17 µM and > 20 µM, respectively.

Consider `COc1cccc2[nH]c(CNc3nc(N4C[C@H]5C[C@@H]4CO5)nc4c(C5CC5)cnn34)nc12` [Example 198, 8-cyclopropyl-N-[(4-methoxy-1H-benzimidazol-2-yl)methyl]-2-[(1R,4R)-2-oxa-5-azabicyclo[2.2.1]heptan-5-yl]pyrazolo[1,5-a][1,3,5]triazin-4-amine], for which the results for the IC50 at CDK12/CycK and on CDK9/CycT1 were 7.48 µM and > 20 µM, respectively.

`O[C@H]1C[C@@H](Nc2nc(NCc3nc4ccccc4[nH]3)n3ncc(Br)c3n2)C1` [Example 234, cis-3-[(4-{[(1H-benzimidazol-2-yl)methyl]amino}-8-bromopyrazolo[1,5-a][1,3,5]triazin-2-yl)amino]cyclobutan-1-ol]: the IC50 on CDK12/CycK was 4.86 µM; at CDK9/CycT1 it was > 20 µM.

Consider `CN1C[C@H]2C[C@@H]1CN2c1nc(NCc2nc3ccccc3[nH]2)n2ncc(Br)c2n1` [Example 218, N-[(1H-benzimidazol-2-yl)methyl]-8-bromo-2-[(1R,4R)-5-methyl-2,5-diazabicyclo[2.2.1]heptan-2-yl]pyrazolo[1,5-a][1,3,5]triazin-4-amine], for which the IC50 on CDK12/CycK and at CDK9/CycT1 was > 20 µM throughout.

Take `CC1(C)CN(c2nc(NCc3nc4ccccc4[nH]3)n3ncc(Br)c3n2)CCN1` [Example 216, N-[(1H-benzimidazol-2-yl)methyl]-8-bromo-2-(3,3-dimethylpiperazin-1-yl)pyrazolo[1,5-a][1,3,5]triazin-4-amine]: the results for the IC50 on CDK12/CycK and on CDK9/CycT1 were > 4.59 µM and > 20 µM, respectively.

Take `C[C@H]1CN(c2nc(NCc3nc4ccccc4[nH]3)n3ncc(Br)c3n2)CCN1` [Example 169, N-[(1H-benzimidazol-2-yl)methyl]-8-bromo-2-[(3S)-3-methylpiperazin-1-yl]pyrazolo[1,5-a][1,3,5]triazin-4-amine]: the IC50 on CDK12/CycK is 13.7 µM; at CDK9/CycT1, > 20 µM.

In the case of `Brc1cnn2c(NCc3nc4ccccc4[nH]3)nc(N3CCC4(CCCN4)C3)nc12` (centres unmarked) [Example 215, N-(1H-benzimidazol-2-ylmethyl)-8-bromo-2-(1,7-diazaspiro[4.4]nonan-7-yl)pyrazolo[1,5-a][1,3,5]triazin-4-amine], the IC50 at CDK12/CycK and on CDK9/CycT1 was > 20 µM each time.

Regarding `Cc1ccc2[nH]c(CNc3nc(N4CCNCC4)nc4c(Br)cnn34)nc2c1` [Example 204, 8-bromo-N-[(5-methyl-1H-benzimidazol-2-yl)methyl]-2-(piperazin-1-yl)pyrazolo[1,5-a][1,3,5]triazin-4-amine], the IC50 is 4.34 µM on CDK12/CycK and > 20 µM at CDK9/CycT1.

Regarding `COc1cccc2[nH]c(CNc3nc(N4C[C@@H]5CCCN[C@@H]5C4)nc4c(C5CC5)cnn34)nc12` [Example 214, 8-cyclopropyl-N-[(4-methoxy-1H-benzimidazol-2-yl)methyl]-2-[(4aS,7aS)-octahydro-6H-pyrrolo[3,4-b]pyridin-6-yl]pyrazolo[1,5-a][1,3,5]triazin-4-amine], the IC50 at CDK12/CycK is 8.09 µM; at CDK9/CycT1, > 20 µM.

Turning to `CN1C[C@@H]2C[C@H]1CN2c1nc(NCc2nc3ccccc3[nH]2)n2ncc(Br)c2n1` [Example 219, N-[(1H-benzimidazol-2-yl)methyl]-8-bromo-2-[(1S,4S)-5-methyl-2,5-diazabicyclo[2.2.1]heptan-2-yl]pyrazolo[1,5-a][1,3,5]triazin-4-amine], the IC50 at CDK12/CycK and on CDK9/CycT1 was > 20 µM throughout.

For the compound `Cc1ccc2[nH]c(CNc3nc(N4C[C@@H]5CCCN[C@@H]5C4)nc4c(C5CC5)cnn34)nc2c1` [Example 195, 8-cyclopropyl-N-[(5-methyl-1H-benzimidazol-2-yl)methyl]-2-[(4aS,7aS)-octahydro-6H-pyrrolo[3,4-b]pyridin-6-yl]pyrazolo[1,5-a][1,3,5]triazin-4-amine], the results for the IC50 at CDK12/CycK and on CDK9/CycT1 were 8.23 µM and > 20 µM, respectively.

On to `OC1CCCN(c2nc(NCc3nc4ccccc4[nH]3)n3ncc(Br)c3n2)C1` (racemic) [Example 16, (rac)-1-(4-{[(1H-benzimidazol-2-yl)methyl]amino}-8-bromopyrazolo[1,5-a][1,3,5]triazin-2-yl)piperidin-3-ol], for which the IC50 at CDK12/CycK is 6.94 µM; at CDK9/CycT1, > 20 µM.

For `OC[C@@H]1CCCCN1c1nc(NCc2nc3cc(F)ccc3[nH]2)n2ncc(C3CC3)c2n1` [Example 191, [(2S)-1-(8-cyclopropyl-4-{[(5-fluoro-1H-benzimidazol-2-yl)methyl]amino}pyrazolo[1,5-a][1,3,5]triazin-2-yl)piperidin-2-yl]methanol], the IC50 at CDK12/CycK is 0.332 µM; on CDK9/CycT1, 7.34 µM.

Turning to `COc1cccc2[nH]c(CNc3nc(N4CCN(C)CC4)nc4c(C5CC5)cnn34)nc12` [Example 197, 8-cyclopropyl-N-[(4-methoxy-1H-benzimidazol-2-yl)methyl]-2-(4-methylpiperazin-1-yl)pyrazolo[1,5-a][1,3,5]triazin-4-amine], the values for the IC50 on CDK12/CycK and at CDK9/CycT1 were 9.53 µM and > 20 µM, respectively.

Turning to `CN1CC[C@H]2CN(c3nc(NCc4nc5ccccc5[nH]4)n4ncc(Br)c4n3)C[C@H]21` [Example 179, N-[(1H-benzimidazol-2-yl)methyl]-8-bromo-2-[(3aS,6aS)-1-methylhexahydropyrrolo[3,4-b]pyrrol-5 (1H)-yl]pyrazolo[1,5-a][1,3,5]triazin-4-amine], the IC50 at CDK12/CycK and at CDK9/CycT1 was > 20 µM in each case.

In the case of `Fc1ccc2[nH]c(CNc3nc(N4CCNCC4)nc4c(C5CC5)cnn34)nc2c1F` [Example 174, 8-cyclopropyl-N-[(4,5-difluoro-1H-benzimidazol-2-yl)methyl]-2-(piperazin-1-yl)pyrazolo[1,5-a][1,3,5]triazin-4-amine], the figures for the IC50 on CDK12/CycK and at CDK9/CycT1 were 1.19 µM and > 20 µM, respectively.
